Patent US10214542B2, “Modified macrocyclic compounds” (BAYER PHARMA AKTIENGESELLSCHAFT, priority 2015, dated 2019)

Key:
[1] = target: T1, CDK9/CycT1 (Homo sapiens, UniProt P50750); test: CDK9/CycT1 kinase assay (TR-FRET, Method 1a); format: biochemical; conditions: 10 μM ATP; for IC50: Method 1a; for Selectivity CDK9 over CDK2: IC50 (CDK2)/IC50 (CDK9): Methods 1a and 2a
T1 construct: Recombinant full-length His-tagged human CDK9 and CycT1; His; purchased Invitrogen PV4131; host or cells: insect cells
Description: 1a. CDK9/CycT1 Kinase Assay:
CDK9/CycT1-inhibitory activity of compounds of the present invention was quantified employing the CDK9/CycT1 TR-FRET assay as described in the following paragraphs:
Recombinant full-length His-tagged human CDK9 and CycT1, expressed in insect cells and purified by Ni-NTA affinity chromatography, were purchased from Invitrogen (Cat. No PV4131). As substrate for the kinase reaction biotinylated peptide biotin-Ttds-YISPLKSPYKISEG (C-terminus in amid form) was used which can be purchased e.g. from the company JERINI Peptide Technologies (Berlin, Germany).
For the assay 50 nl of a 100 fold concentrated solution of the test compound in DMSO was pipetted into a black low volume 384 well microtiter plate (Greiner Bio-One, Frickenhausen, Germany), 2 μl of a solution of CDK9/CycT1 in aqueous assay buffer [50 mM Tris/HCl pH 8.0, 10 mM MgCl2, 1.0 mM dithiothreitol, 0.1 mM sodium ortho-vanadate, 0.01% (v/v) Nonidet-P40 (Sigma)] were added and the mixture was incubated for 15 min at 22° C. to allow pre-binding of the test compounds to the enzyme before the start of the kinase reaction. […] The concentration of CDK9/CycT1 was adjusted depending of the activity of the enzyme lot and was chosen appropriate to have the assay in the linear range, typical concentrations were in the range of 1 μg/mL. The reaction was stopped by the addition of 5 μl of a solution of TR-FRET detection reagents (0.2 μM streptavidine-XL665 [Cisbio Bioassays, Codolet, France] and 1 nM anti-RB(pSer807/pSer811)-antibody from BD Pharmingen [#558389] and 1.2 nM LANCE EU-W1024 labeled anti-mouse IgG antibody [Perkin-Elmer, product no. AD0077]) in an aqueous EDTA-solution (100 mM EDTA, 0.2% (w/v) bovine serum albumin in 100 mM HEPES pH 7.5).
The resulting mixture was incubated 1 h at 22° C. to allow the formation of complex between the phosphorylated biotinylated peptide and the detection reagents. Subsequently the amount of phosphorylated substrate was evaluated by measurement of the resonance energy transfer from the Eu-chelate to the streptavidine-XL. Therefore, the fluorescence emissions at 620 nm and 665 nm after excitation at 350 nm was measured in a HTRF reader, e.g. a Rubystar (BMG Labtechnologies, Offenburg, Germany) or a Viewlux (Perkin-Elmer). The ratio of the emissions at 665 nm and at […] was taken as the measure for the amount of phosphorylated substrate. The data were normalised (enzyme reaction without inhibitor=0% inhibition, all other assay components but no enzym=100% inhibition).

[2] = target: T2, CDK2/CycE (Homo sapiens, UniProt P24941); test: CDK2/CycE high ATP kinase assay (TR-FRET, Method 2b); format: biochemical; conditions: 2 mM ATP
T2 construct: GST; purchased ProQinase GmbH (Freiburg, Germany); host or cells: insect cells (Sf9)
Method: 2b. CDK2/CycE High ATP Kinase Assay:
CDK2/CycE-inhibitory activity of compounds of the present invention at 2 mM adenosine-tri-phosphate (ATP) was quantified employing the CDK2/CycE TR-FRET (TR-FRET=Time Resolved Fluorescence Resonance Energy Transfer) assay as described in the following paragraphs.
Recombinant fusion proteins of GST and human CDK2 and of GST and human CycE, expressed in insect cells (Sf9) and purified by Glutathion-Sepharose affinity chromatography, were purchase from ProQinase GmbH (Freiburg, Germany). As substrate for the kinase reaction biotinylated peptide biotin-Ttds-YISPLKSPYKISEG (C-terminus in amid form) was used which can be purchased e.g. from the company JERINI peptide technologies (Berlin, Germany).
For the assay 50 nl of a 100 fold concentrated solution of the test compound in DMSO was pipetted into a black low volume 384 well microtiter plate (Greiner Bio-One, Frickenhausen, Germany), 2 μl of a solution of CDK2/CycE in aqueous assay buffer [50 mM Tris/HCl pH 8.0, 10 mM MgCl2, 1.0 mM dithiothreitol, 0.1 mM sodium ortho-vanadate, 0.01% (v/v) Nonidet-P40 (Sigma)] were added and the mixture was incubated for 15 min at 22° C. to allow pre-binding of the test compounds to the enzyme before the start of the kinase reaction. Then the kinase reaction was started by the addition of 3 μl of a solution ATP (3.33 mM=>final conc. in the 5 μl assay volume is 2 mM) and substrate (1.25 μM=>final conc. in the 5 μl assay volume is 0.75 μM) in assay buffer and the resulting mixture was incubated for a reaction time of 25 min at 22° C. The concentration of CDK2/CycE was adjusted depending of the activity of the enzyme lot and was chosen appropriate to have the assay in the linear range, typical concentrations were in the range of 15 ng/ml. The reaction was stopped by the addition of 5 μl of a solution of TR-FRET detection reagents (0.2 μM streptavidine-XL665 [Cisbio Bioassays, Codolet, France] and 1 nM anti-RB(pSer807/pSer811)-antibody from BD Pharmingen [#558389] and 1.2 nM LANCE EU-W1024 labeled anti-mouse IgG antibody [Perkin-Elmer, product no. AD0077, as an alternative a Terbium-cryptate-labeled anti-mouse IgG antibody from Cisbio Bioassays can be used]) in an aqueous EDTA-solution (100 mM EDTA, 0.2% (w/v) bovine serum albumin in 100 mM HEPES pH 7.5).
The resulting mixture was incubated 1 h at 22° C. to allow the formation of complex between the phosphorylated biotinylated peptide and the detection reagents. Subsequently the amount of phosphorylated substrate was evaluated by measurement of the resonance energy transfer from the Eu-chelate to the streptavidine-XL. Therefore, the fluorescence emissions at 620 nm and 665 nm after excitation at 350 nm were measured in a TR-FRET reader, e.g. a Rubystar (BMG Labtechnologies, Offenburg, Germany) or a Viewlux (Perkin-Elmer). The ratio of the emissions at 665 nm and at […] was taken as the measure for the amount of phosphorylated substrate. The data were normalised (enzyme reaction without inhibitor=0% inhibition, all other assay components but no enzym=100% inhibition).

T1 sequence (P50750 whole entry): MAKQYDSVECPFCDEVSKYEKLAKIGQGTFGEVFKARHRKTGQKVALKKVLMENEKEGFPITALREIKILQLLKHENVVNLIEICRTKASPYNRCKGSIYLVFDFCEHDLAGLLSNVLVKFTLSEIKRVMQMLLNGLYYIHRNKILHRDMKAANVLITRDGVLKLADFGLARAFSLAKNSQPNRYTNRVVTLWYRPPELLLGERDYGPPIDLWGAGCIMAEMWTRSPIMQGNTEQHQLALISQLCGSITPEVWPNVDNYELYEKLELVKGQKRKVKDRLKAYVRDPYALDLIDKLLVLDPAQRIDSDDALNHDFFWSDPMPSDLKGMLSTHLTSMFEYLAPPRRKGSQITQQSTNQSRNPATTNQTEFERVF
T1 sequence (O60563 whole entry partner): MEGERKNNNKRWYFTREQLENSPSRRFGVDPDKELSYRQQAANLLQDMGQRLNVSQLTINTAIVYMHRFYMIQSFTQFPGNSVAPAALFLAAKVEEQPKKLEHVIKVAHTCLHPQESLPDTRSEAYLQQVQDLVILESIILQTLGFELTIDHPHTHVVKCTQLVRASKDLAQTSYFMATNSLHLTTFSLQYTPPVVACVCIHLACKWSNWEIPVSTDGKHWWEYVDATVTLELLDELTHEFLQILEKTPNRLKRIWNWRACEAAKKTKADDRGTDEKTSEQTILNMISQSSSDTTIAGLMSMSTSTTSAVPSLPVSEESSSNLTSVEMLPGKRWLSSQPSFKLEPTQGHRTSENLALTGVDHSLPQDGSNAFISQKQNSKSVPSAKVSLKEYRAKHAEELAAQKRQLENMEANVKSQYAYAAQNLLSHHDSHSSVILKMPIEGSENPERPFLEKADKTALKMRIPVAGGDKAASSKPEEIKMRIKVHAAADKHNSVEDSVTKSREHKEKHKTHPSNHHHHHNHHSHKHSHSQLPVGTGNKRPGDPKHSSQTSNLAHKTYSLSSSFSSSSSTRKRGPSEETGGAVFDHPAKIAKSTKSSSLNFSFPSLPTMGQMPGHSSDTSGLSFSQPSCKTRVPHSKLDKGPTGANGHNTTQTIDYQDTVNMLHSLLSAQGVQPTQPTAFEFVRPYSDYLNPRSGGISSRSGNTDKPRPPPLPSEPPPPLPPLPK

IC50 [1] [µM]	Selectivity CDK9 over CDK2: IC50 (CDK2)/IC50 (CDK9) [1]	IC50 [2] [µM]	SMILES
0.0147	47.5	8.05	CS(=O)(Cc1cc2nc(c1)Nc1cc(c(F)cn1)-c1ccc(F)cc1OCCCCN2)=NC(=O)OCc1ccccc1 (racemic) [Example 2, (rac)-Benzyl[{[16,20-difluoro-3,4,5,6-tetrahydro-2H,12H-11,7-(azeno)-13,17-(metheno)-1,6,12,14-benzoxatriazacyclononadecin-9-yl]methyl}(methyl)oxido-λ^6-sulfanylidene]carbamate]
0.0083	5.3	0.65	CS(=N)(=O)Cc1cc2nc(c1)Nc1cc(c(F)cn1)-c1ccc(F)cc1OCCCCN2 (racemic) [Example 3, (rac)-16,20-Difluoro-9-[(S-methylsulfonimidoyl)methyl]-3,4,5,6-tetrahydro-2H,12H-11,7-(azeno)-13,17-(metheno)-1,6,12,14-benzoxatriazacyclononadecine]
0.0062	44.4	8.25	C[S+]([O-])Cc1cc2nc(c1)OCCCCc1cc(F)ccc1-c1cc(ncc1F)N2 (racemic) [Example 5, (rac)-2,18-Difluoro-9-[(methylsulfinyl)methyl]-13,14,15,16-tetrahydro-6H-7,11-(azeno)-5,1-(metheno)-12,4,6-benzoxadiazacyclooctadecine]
0.0075	3.6	0.061	CC(C)(C)OC(=O)N=S(C)(=O)Cc1cc2nc(c1)Nc1cc(c(F)cn1)-c1ccc(F)cc1OCCCN2 (racemic) [Example 7, (rac)-tert-butyl[{[15,19-difluoro-2,3,4,5-tetrahydro-11H-10,6-(azeno)-16,12-(metheno)-1,5,11,13-benzoxatriazacyclooctadecin-8-yl]methyl}(methyl)oxido-λ^6-sulfanylidene]carbamate]
0.0027	3.4	0.029	CS(=N)(=O)Cc1cc2nc(c1)Nc1cc(c(F)cn1)-c1ccc(F)cc1OCCCN2 (racemic) [Example 8, (rac)-15,19-difluoro-8-[(S-methylsulfonimidoyl)methyl]-2,3,4,5-tetrahydro-11H-10,6-(azeno)-16,12-(metheno)-1,5,11,13-benzoxatriazacyclooctadecine]
0.013	7.4	0.253	CC(C)(C)OC(=O)N=S(C)(=O)Cc1cc2nc(c1)Nc1cc(c(F)cn1)-c1ccc(F)cc1OCCCCCN2 (racemic) [Example 9, (rac)-tert-butyl[{[17,21-difluoro-2,3,4,5,6,7-hexahydro-13H-12,8-(azeno)-14,18-(metheno)-1,7,13,15-benzoxatriazacycloicosin-10-yl]methyl}(methyl)oxido-λ^6-sulfanylidene]carbamate]
0.0034	8.2	0.102	CS(=N)(=O)Cc1cc2nc(c1)Nc1cc(c(F)cn1)-c1ccc(F)cc1OCCCCCN2 (racemic) [Example 10, (rac)-17,21-difluoro-10-[(S-methylsulfonimidoyl)methyl]-2,3,4,5,6,7-hexahydro-13H-12,8-(azeno)-14,18-(metheno)-1,7,13,15-benzoxatriazacycloicosine]
0.0051	6.7	0.08	CN1CCCCOc2cc(F)ccc2-c2cc(ncc2F)Nc2cc(CS(C)(=N)=O)cc1n2 (racemic) [Example 11, (rac)-16,20-difluoro-6-methyl-9-[(S-methylsulfonimidoyl)methyl]-3,4,5,6-tetrahydro-2H-7,11-(azeno)-17,13-(metheno)-1,6,12,14-benzoxatriazacyclononadecine]
0.0065		1.28	CC(C)(C)OC(=O)N=S(C)(=O)Cc1cc2cc(c1)OCCCNc1cc(F)ccc1-c1nc(ncc1F)N2 (racemic) [Example 13, (rac)-tert-butyl[{[15,19-difluoro-1,2,3,4-tetrahydro-16,12-(azeno)-6,10-(metheno)-5,1,11,13-benzoxatriazacyclooctadecin-8(11H)-yl]methyl}(methyl)oxido-λ^6-sulfanylidene]carbamate]
0.0032		0.094	CS(=N)(=O)Cc1cc2cc(c1)OCCCNc1cc(F)ccc1-c1nc(ncc1F)N2 (racemic) [Example 14, rac-15,19-difluoro-8-[(S-methylsulfonimidoyl)methyl]-1,2,3,4-tetrahydro-16,12-(azeno)-6,10-(metheno)-5,1,11,13-benzoxatriazacyclooctadecine]
		11.9	CC(C)(C)OC(=O)N=S(C)(=O)Cc1cc2cc(c1)OCCCCSc1cc(F)ccc1-c1nc(ncc1F)N2 (racemic) [Example 21, (rac)-tert-butyl[{[16,20-difluoro-2,3,4,5-tetrahydro-12H-17,13-(azeno)-11,7-(metheno)-6,1,12,14-benzoxathiadiazacyclononadecin-9-yl]methyl}(methyl)oxido-λ^6-sulfanylidene]carbamate]
		1.1	CS(=N)(=O)Cc1cc2cc(c1)OCCCCSc1cc(F)ccc1-c1nc(ncc1F)N2 (racemic) [Example 22, (rac)-16,20-difluoro-9-[(S-methylsulfonimidoyl)methyl]-2,3,4,5-tetrahydro-12H-17,13-(azeno)-11,7-(metheno)-6,1,12,14-benzoxathiadiazacyclononadecine]
0.025	1.1		CSCc1cc2nc(c1F)N(C)CCCCOc1cc(F)ccc1-c1cc(ncc1F)N2 [Example 12, 8,16,20-trifluoro-6-methyl-9-[(methylsulfanyl)methyl]-3,4,5,6-tetrahydro-2H,12H-11,7-(azeno)-13,17-(metheno)-1,6,12,14-benzoxatriazacyclononadecine]
